From PMC8298633, “Cannabis constituents interact at the drug efflux pump BCRP to markedly increase plasma cannabidiolic acid concentrations” (Scientific Reports, 2021)
Where “and” joins values, the source holds several entries; their conditions need not be identical. Equal values may be shown once.

Experiments:
[1] = Bidirectional transwell transport assay, wildtype MDCK cell monolayers; settings: dog, MDCK
Procedure: (§1) We first aimed to determine whether the cannabinoids found in the full-spectrum cannabis extract were substrates of P-glycoprotein and BCRP by using MDCK cells expressing human P-glycoprotein or BCRP in vitro. Transwell assays were conducted to assess bidirectional transport of the cannabinoids detected in plasma following administration of the full-spectrum cannabis extract (CBD, CBDA, CBDVA, CBGA, Δ^9-THC and Δ^9-THCA), including the respective neutral compounds (CBDV and CBG) across wildtype, BCRP and P-glycoprotein MDCK cell monolayers. […] BCRP and P-glycoprotein preferentially transport substrates in the B > A direction.
(§2) Media in the donor chamber was then replaced with that containing 10 µM of an individual cannabinoid in the presence of either vehicle or inhibitor and returned to 37 °C. Aliquots (25 or 50 µL) were removed from the accepter chamber at 60, 120, 180 and 240 min.
(§3) Cannabinoids were analyzed as described above.

[2] = system: wildtype MDCK cells; test: as above; settings: wildtype MDCK cells, 10 µM cannabinoid, apical to basolateral
Procedure: as §1, §2, §3

[3] = biological target: T1, BCRP (Homo sapiens, UniProt Q9UNQ0); test: Bidirectional transwell substrate assay, MDCK cells expressing BCRP (with or without elacridar); settings: for P (A > B): apical to basolateral; for P (B > A): basolateral to apical; for BCRP substrate status: human BCRP MDCK cells vs wildtype, with elacridar control; for efflux ratio at 240 min, 10 µM: human, r (transport efflux ratio)
T1 sequence (Q9UNQ0 1-655): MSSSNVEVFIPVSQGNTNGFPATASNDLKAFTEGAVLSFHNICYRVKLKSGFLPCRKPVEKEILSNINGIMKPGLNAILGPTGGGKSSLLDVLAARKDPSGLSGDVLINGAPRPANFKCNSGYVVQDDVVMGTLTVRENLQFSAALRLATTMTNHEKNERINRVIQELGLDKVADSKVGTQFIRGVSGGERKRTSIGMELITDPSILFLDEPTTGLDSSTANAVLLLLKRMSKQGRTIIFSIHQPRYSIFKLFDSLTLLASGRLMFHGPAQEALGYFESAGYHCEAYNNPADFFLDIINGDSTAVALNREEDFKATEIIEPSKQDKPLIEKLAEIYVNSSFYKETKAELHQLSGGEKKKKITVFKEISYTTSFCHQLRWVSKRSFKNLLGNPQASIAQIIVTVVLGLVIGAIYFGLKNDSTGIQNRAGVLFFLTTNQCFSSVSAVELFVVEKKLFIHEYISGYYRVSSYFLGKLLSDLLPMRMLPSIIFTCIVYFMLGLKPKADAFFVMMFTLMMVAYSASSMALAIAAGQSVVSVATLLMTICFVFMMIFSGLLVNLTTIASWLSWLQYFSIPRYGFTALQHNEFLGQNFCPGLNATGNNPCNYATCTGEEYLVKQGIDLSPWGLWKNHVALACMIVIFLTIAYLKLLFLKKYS
Procedure: as §1, §2, §3

[4] = set-up: method as in PMID 33155722; settings: healthy individuals, oral cannabis decoction and oil containing 3–6 times the amount of CBDA compared to CBD; cited from earlier work
[5] = biological target: P-glycoprotein (Homo sapiens, UniProt P08183); test: Bidirectional transwell substrate assay, MDCK cells expressing P-glycoprotein; settings: for P (A > B): apical to basolateral; for P (B > A): basolateral to apical; for P-glycoprotein substrate status: human P-glycoprotein MDCK cells vs wildtype
Procedure: as §1, §2, §3

[6] = Pharmacokinetic study: plasma cannabinoids after single oral gavage of full-spectrum cannabis extract or individual cannabinoid; settings: for AUC / Cmax / half-life / tmax: both, mouse, plasma, po; for half-life: t1/2, mouse plasma; for Detection in plasma following oral administration of the full-spectrum extract: single oral dose of extract
Procedure: Drugs were administered by oral gavage in a volume of 5 mL/kg. Wildtype male and female mice (postnatal day 21–28, P21-28) received a single oral gavage of either the full-spectrum cannabis extract or an individual cannabinoid. Cannabinoid doses within the full-spectrum extract or as an individual cannabinoid were as follows in mg/kg: CBDA and Δ^9-THCA, 50; CBD, 25; Δ^9-THC, 15; CBC, 9; CBDVA and CBGA, 7; CBN, 2.5; CBG, 1.5; CBDV and Δ^9-THCV, < 1 (Fig. 1a). At selected time points (15–240 min), mice were anesthetized with isoflurane and whole blood was collected by cardiac puncture. Plasma was isolated by centrifugation (9000 g for 10 min, 4 °C) and stored at − 80 °C until assayed.
Concentrations of cannabinoids in plasma samples were quantified as described previously, [24], [58]. […] The organic layer was isolated by centrifugation (4000 g for 10 min) and evaporated to dryness with N2. Samples were reconstituted in acetonitrile and 0.1% formic acid in water (1:3.3, v/v) for supported-liquid extraction (SLE) with methyl tert-butyl ether (MTBE) using Biotage Isolute SLE+ columns (Uppsala, SWE). […] Quantification of cannabinoids was achieved by comparing samples to standards prepared with known amounts of drug.
Plasma concentrations at each time point were averaged and pharmacokinetic parameters were calculated by noncompartmental analysis. Elimination rate constants were determined by linear regression of the terminal component of the concentration–time curve using GraphPad Prism 8.2 (La Jolla, USA). The log-linear trapezoidal method was used to calculated total drug exposure (area under concentration–time curve) using equations described previously.

[7] = system: Bcrp1; settings: mouse Bcrp1; cited from earlier work
[8] = biological target: T1, BCRP; test: Inhibition of BCRP-mediated transport of CBDA by cannabinoids (transwell, BCRP MDCK cells); settings: 10 µM
Procedure: Cannabinoids were tested at 10 µM. […] Data are expressed as means ± SEM, with n = 4 per time point. […] Schematic created using BioRender.com.
as §3

[9] = biological target: T1, BCRP; test: Inhibition of BCRP-mediated transport of prazosin (transwell, BCRP MDCK cells); settings: 10 µM, compared to vehicle
[10] = BCRP MDCK cells, 10 µM cannabinoid
[11] = with elacridar 10 µM, BCRP MDCK cells, 10 µM cannabinoid in the presence of 10 µM elacridar
[12] = P-glycoprotein MDCK cells, 10 µM cannabinoid
[13] = mouse plasma, oral, administered as individual cannabinoid, doses mg/kg: CBD 25, CBDA 50, CBDVA 7, THC 15, THCA 50
[14] = mouse plasma, oral, administered in full-spectrum extract, doses mg/kg: CBD 25, CBDA 50, CBDVA 7, CBGA 7, THC 15, THCA 50
[15] = oral, administered as individual cannabinoid, doses mg/kg: CBD 25, CBDA 50, CBDVA 7, THC 15, THCA 50
[16] = oral, administered in full-spectrum extract, doses mg/kg: CBD 25, CBDA 50, CBDVA 7, CBGA 7, THC 15, THCA 50
[17] = mouse plasma, oral, administered as individual cannabinoid, doses mg/kg: CBD 25, CBDA 50, CBDVA 7, CBGA 7, THC 15, THCA 50
[18] = BCRP MDCK cells, 10 µM cannabinoid, substrate threshold 1.5

Chain of P-glycoprotein (P08183 whole entry): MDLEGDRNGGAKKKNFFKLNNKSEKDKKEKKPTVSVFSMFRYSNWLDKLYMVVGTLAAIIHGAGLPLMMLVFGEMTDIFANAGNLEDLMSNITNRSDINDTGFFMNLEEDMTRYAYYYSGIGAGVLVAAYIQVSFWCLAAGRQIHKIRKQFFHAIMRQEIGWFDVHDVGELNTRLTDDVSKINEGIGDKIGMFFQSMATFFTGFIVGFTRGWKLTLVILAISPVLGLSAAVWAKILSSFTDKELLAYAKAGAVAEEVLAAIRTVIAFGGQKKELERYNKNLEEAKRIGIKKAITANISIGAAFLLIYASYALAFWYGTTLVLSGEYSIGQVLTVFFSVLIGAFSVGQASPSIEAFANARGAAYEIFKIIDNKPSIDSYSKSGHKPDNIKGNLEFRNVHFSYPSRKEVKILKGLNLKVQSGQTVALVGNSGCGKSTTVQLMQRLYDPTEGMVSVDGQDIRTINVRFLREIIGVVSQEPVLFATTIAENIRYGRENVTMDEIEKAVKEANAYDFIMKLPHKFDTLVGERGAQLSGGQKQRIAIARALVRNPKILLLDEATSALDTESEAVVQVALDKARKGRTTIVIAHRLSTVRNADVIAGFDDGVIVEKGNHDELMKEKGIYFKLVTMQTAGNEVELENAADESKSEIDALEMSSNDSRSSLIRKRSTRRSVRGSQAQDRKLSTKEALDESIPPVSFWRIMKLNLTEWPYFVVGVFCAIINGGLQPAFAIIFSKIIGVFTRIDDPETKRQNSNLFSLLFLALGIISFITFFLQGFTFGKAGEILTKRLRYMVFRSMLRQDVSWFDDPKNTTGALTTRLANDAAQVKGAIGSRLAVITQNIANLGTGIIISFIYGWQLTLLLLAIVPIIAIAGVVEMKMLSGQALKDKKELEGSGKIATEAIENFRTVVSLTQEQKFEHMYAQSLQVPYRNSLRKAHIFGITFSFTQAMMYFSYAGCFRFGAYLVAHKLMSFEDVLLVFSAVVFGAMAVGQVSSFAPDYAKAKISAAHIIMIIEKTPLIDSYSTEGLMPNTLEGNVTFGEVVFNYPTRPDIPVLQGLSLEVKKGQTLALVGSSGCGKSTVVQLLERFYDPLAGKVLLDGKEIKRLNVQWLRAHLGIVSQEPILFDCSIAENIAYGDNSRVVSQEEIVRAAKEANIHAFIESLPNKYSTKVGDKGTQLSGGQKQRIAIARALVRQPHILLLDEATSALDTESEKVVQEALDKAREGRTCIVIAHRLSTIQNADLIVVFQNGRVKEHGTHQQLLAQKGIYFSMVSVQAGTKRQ

Row | Compound | Papp B→A at 240 min, 10 µM [1] | efflux ratio at 240 min, 10 µM [1] | P (A > B) [2] | P (A > B) [3, 10] | P (B > A) [3, 10] | BCRP substrate status [3] | efflux ratio at 240 min, 10 µM [3, 11] | P (A > B) [5, 12] | P (B > A) [5, 12] | P-glycoprotein substrate status [5] | AUC [6, 13] | AUC [6, 14] | half-life [6, 15] | half-life [6, 16] | tmax [6, 17] | tmax [6, 14] | Detection in plasma following oral administration of the full-spectrum extract ([6]; mouse plasma) | further results
1 | C=C(C)[C@@H]1CCC(C)=C[C@H]1c1c(O)cc(CCCCC)c(C(=O)O)c1O [CBDA, cannabidiolic acid] | 370 ± 90 ×10⁻⁶ cm/s | 1.2 ± 0.3 | 31 ± 8 × 10^−5 cm/s | 38 ± 11 × 10^−5 cm/s | 162 ± 24 × 10^−5 cm/s | BCRP substrates | 0.4 ± 0.4 | 24 ± 7 × 10^−5 cm/s | 38 ± 4 × 10^−5 cm/s | not P-glycoprotein substrates | 27300 ng·h/mL | 380000 ng·h/mL | 198 min | 310 min | 1.5 h | ≤ 1 h | detected | Serum CBDA concentrations relative to serum CBD concentrations [4]: 20–30 times; r (transport efflux ratio) ([5]; P-glycoprotein MDCK cells, 10 µM cannabinoid, substrate threshold 2.5): 1.5 ± 0.3; efflux ratio at 240 min, 10 µM ([5]; human, MDCK-MDR1, r (transport efflux ratio), P-glycoprotein MDCK cells, 10 µM cannabinoid, substrate threshold 2.5): < 2.5; Cmax ([6]; mouse plasma, oral, administered as individual cannabinoid, doses mg/kg: CBDA 50, CBDVA 7, CBGA 7): 6000 ± 1000 ng/mL; Cmax ([6]; mouse plasma, oral, administered in full-spectrum extract, doses mg/kg: CBDA 50, CBDVA 7, CBGA 7): 47000 ± 4000 ng/mL; Total plasma exposure (AUC) in full-spectrum extract relative to individual compound, fold higher ([6]; mouse plasma, oral, 50 mg/kg, equivalent doses): ~14 × and 14 ×
2 | C=C(C)[C@@H]1CCC(C)=C[C@H]1c1c(O)cc(CCCCC)cc1O [CBD, cannabidiol] | 250 ± 30 ×10⁻⁶ cm/s | 0.6 ± 0.2 | 41 ± 5 × 10^−5 cm/s | 52 ± 8 × 10^−5 cm/s | 86 ± 20 × 10^−5 cm/s | BCRP substrates | 1 ± 0.2 | 25 ± 7 × 10^−5 cm/s | 15 ± 3 × 10^−5 cm/s | not P-glycoprotein substrates | 1730 ng·h/mL | 717 ng·h/mL | 217 min | 484 min | 1.5 h | ≤ 1 h | detected | r (transport efflux ratio) [3, 18]: 1.6 ± 0.3; efflux ratio at 240 min, 10 µM [3, 18]: > 1.5; Bcrp1 substrate status [7]: not a substrate of mouse Bcrp1; Cmax ([6]; 25 mg/kg, mouse plasma, oral, administered as individual cannabinoid, doses mg/kg: CBD 25, THC 15, THCA 50): 304 ± 28 ng/mL; Cmax ([6]; 25 mg/kg, mouse plasma, oral, administered in full-spectrum extract, doses mg/kg: CBD 25, THC 15, THCA 50): 60 ± 6 ng/mL; Total plasma exposure in full-spectrum extract relative to individual compound, fold lower ([6]; mouse plasma, oral, equivalent doses): 2–4 ×; Effect on BCRP-mediated transport of CBDA ([8]; BCRP MDCK cells, compared to vehicle): Neither CBD nor CBDVA affected CBDA transport via BCRP; r (transport efflux ratio) of CBDA in the presence of inhibitor ([8]; human, 240 min): 5.9 ± 0.1; Effect on BCRP-mediated transport of prazosin [9]: identified as an inhibitor of BCRP
